According to patent US7015309B1 (The Wistar Institute of Anatomy and Biology, priority 1999, dated 2006):
Where two headings read alike, the source gives them in different places. Non-standard residues stand in square brackets, D forms with d. Residues, ends and D or L forms follow the SMILES beside them. No end group written: not given here. ξ: configuration not given here. Ac6c = NC1(C(=O)O)CCCCC1; Dap = NC[C@H](N)C(=O)O; ξDap = NCC(N)C(=O)O

Key:
[1] = system: Agrobacterium tumefaciens
Description: (§1) Growth inhibition assays were performed using the peptides of Example 1 and the Gram positive microorganisms Micrococcus luteus and Bacillus megaterium, and the Gram negative microorganisms, Escherichia coli D22, Agrobacterium tumefaciens, and Salmonella typhimurium. Anti-bacterial assays were performed in sterilized 96-well plates (Nunc F96 microtiter plates) with a final volume of 100 μl as described in Bulet (1996), cited above. Briefly, 90 μl of a suspension of a midlogarithmic phase bacterial culture at an initial 600 nm UV absorbence of 0.001 in Luria-Bertani rich nutrient medium was added to 10 μl of serially diluted peptides in sterilized water. The final peptide concentrations ranged between 0.15 and 80 μM. The plates were incubated at 30° C. for 24 hours with gentle shaking, and the growth inhibition was measured by recording the increase of the UV absorbence at 600 nm on an SLT Labinstruments 400 ATC microplate reader. The experiments were conducted over a 7-month period.

Bacillus megaterium = system: Bacillus megaterium
Description: as §1

Escherichia coli D22 = conditions: read-out: IC50 in μM against Escherichia coli D22; 30° C., 24 hours; for Peptide 22 original assay (a)
Description: as §1

Micrococcus luteus = system: Micrococcus luteus
Description: as §1

Salmonella typhimurium = system: Salmonella typhimurium
Description: as §1

sheep erythrocytes = assay: Hemolytic activity, release of hemoglobin; conditions: for Absorbence at 405 nm: one hour, 39° C.; for toxicity to sheep erythrocytes (in words): 256 μM concentration
Description: To determine whether native and modified pyrrhocoricin peptides were toxic to mammalian cells, several peptides from Example 1 above, a positive control, and a negative control were examined for hemolytic activity. Hemolytic activity was assayed with sheep erythrocytes suspended in Alsever's solution (BioWhittaker, Walkersville, Md.), and diluted with Dulbecco's phosphate-buffered saline, pH 7.2. Thirty μL of a 1% suspension of the red blood cells was incubated with agitation at 39° C. with 30 μL of 40 to 256 μM of each of the following peptides dissolved in phosphate buffered saline for one hour and centrifuged at 1000 g for five minutes. Fifty μL of the supernatant was collected and the release of hemoglobin was detected by measuring the ultraviolet absorbences of triplicate samples of the 40 μM or 256 μM test peptides and the control peptides at 405 nm.

COS cells = assay: Direct killing of immortalized COS cells; format: cell-based
Source text: In another toxicity assay, COS cell survival was studied for pyrrhocoricin and cecropin B (Bachem Biosciences, King of Prussia, Pa.) as the positive control.

[2] = In vivo toxicity control, uninfected mice; parameters: species or system mice of CD-1 strain; conditions: 50 mg/kg dose, intravenous
[3] = mouse serum, 45-minute digestion, MALDI-MS peak height
Description: (§2) Owing to the fact that the use of diluted serum increases peptide recovery as well as retards the reaction kinetics to a manageable rate, the experiments were conducted using 25% aqueous sera.
(§3) For serum stability studies, 10 μl of an aqueous peptide stock solution containing about 0.8 mg/ml peptide was added to 200 μl 25% aqueous pooled mouse or human serum (Sigma, St. Louis, Mo.), according to the process described in M. F. Powell et al, Pharmacol Res, 10: 1268–1273 (1993). The peptide-serum mixture was thermostated at 37° C. After 0 minutes, 45 minutes, 2 hours and 4 hours, three samples of each peptide were taken and precipitated by the addition of 40 μl 15% aqueous trichloroacetic acid. The samples were stored at 4° C. for 20 minutes and centrifuged. The peptides and some remaining serum proteins were recovered in the supernatant after the trichloroacetic acid precipitation. The supernatants were immediately frozen on dry-ice and 220 μl of each were analyzed on RP-HPLC. A mouse serum and two different batches of the same SIGMA catalog number of human sera (human 1, approximately 1 year old, and human 2, approximately 1 month old) were also used.
(§4) The lyophilized samples were redissolved in 0.1 aqueous TFA and submitted for matrix assisted laser desorption/ionization (MALDI-MS).
(§5) The missing residues are indicated (e.g—C2 means that the C-terminal two residues are cleaved off). […] In Table 4, the relative amounts of the degradation products are estimated based on the MALDI-MS peak heights. 0=not detected; 1=very weak (below 5000), 2=weak (5–10000), 3=medium (10–15000), 4=strong (15000-uncleaved molecular ion at 25–30000), 5=very strong (above uncleaved molecular ion).

[4] = for Degradation product −C1, relative amount / Degradation product −C2, relative amount / Degradation product −C3, relative amount / Degradation product −C6, relative amount / Degradation product −N3, C2, relative amount / Degradation product −N3, relative amount / Degradation product −N5, C2, relative amount / Degradation product −N5, relative amount: 45-minute digestion
Description: as §2, §3, §4, §5

in vitro = conditions: mouse, 25% aqueous pooled mouse serum
Description: as §2, §3, §4, §5

[5] = native glycosylated drosocin; cited from earlier work
bacteria = conditions: cited from earlier work
[6] = within a four-hour period; cited from earlier work
[7] = within a four-hour period; cited from earlier work; remark: listed apart in the source
[8] = human 1 serum (approximately 1 year old)
[9] = human 2 serum (approximately 1 month old)

Molecule: VDKGSYLPRPTPPRPIYNRN-NH2 [Peptide 1]
- IC50 ([1]; read-out: IC50 in μM against Agrobacterium tumefaciens, 30° C., 24 hours, for Peptide 22 original assay (a)): < 0.075 µM
- IC50 (Bacillus megaterium; read-out: IC50 in μM against Bacillus megaterium, 30° C., 24 hours, for Peptide 22 original assay (a)): 5 µM
- IC50 (Escherichia coli D22): < 0.075 µM
- IC50 (Micrococcus luteus; read-out: IC50 in μM against Micrococcus luteus, 30° C., 24 hours, for Peptide 22 original assay (a)): 10 µM
- IC50 (Salmonella typhimurium; read-out: IC50 in μM against Salmonella typhimurium, 30° C., 24 hours, for Peptide 22 original assay (a)): 0.6 µM
- Absorbence at 405 nm (sheep erythrocytes; 40 μM peptide): 0.108 ± 0.015
- toxicity to sheep erythrocytes (in words) (sheep erythrocytes): completely non-toxic
- Absorbence at 405 nm (sheep erythrocytes; 256 μM peptide): 0.0135 ± 0.005
- Cell Count after Treatment (COS cells; 5 μM peptide): 18 ± 4
- Cell Count after Treatment (COS cells; 10 μM peptide): 12 ± 4
- Cell Count after Treatment (COS cells; 50 μM peptide): 11 ± 1
- effect on cell count and rate of proliferation (in words) (COS cells; up to 50 μM/mL concentration): did not change
- toxicity of peptide alone (in words) [2]: Neither Peptides 1 nor 21 [SEQ ID NOS: 6 and 22, respectively] alone showed any toxicity
- Degradation product −C1, relative amount [3]: 2 (2=weak (5–10000))
- Degradation product −C2, relative amount [3]: 2 (2=weak (5–10000))
- Degradation product −C3, relative amount [3]: 0
- Degradation product −C6, relative amount [3]: 0
- Degradation product −N3, C2, relative amount [3]: 0
- Degradation product −N3, relative amount [3]: 0
- Degradation product −N5, C2, relative amount [3]: 0
- Degradation product −N5, relative amount [3]: 0
- Degradation product −C1, relative amount [4, 8]: 3 (3=medium (10–15000))
- Degradation product −C2, relative amount [4, 8]: 4 (4=strong (15000-uncleaved molecular ion at 25–30000))
- Degradation product −C3, relative amount [4, 8]: 3 (3=medium (10–15000))
- Degradation product −C6, relative amount [4, 8]: 1 (1=very weak (below 5000))
- Degradation product −N3, C2, relative amount [4, 8]: 0
- Degradation product −N3, relative amount [4, 8]: 0
- Degradation product −N5, C2, relative amount [4, 8]: 0
- Degradation product −N5, relative amount [4, 8]: 2 (2=weak (5–10000))
- Degradation product −C1, relative amount [4, 9]: 2 (2=weak (5–10000))
- Degradation product −C2, relative amount [4, 9]: 2 (2=weak (5–10000))
- Degradation product −C3, relative amount [4, 9]: 0
- Degradation product −C6, relative amount [4, 9]: 0
- Degradation product −N3, C2, relative amount [4, 9]: 0
- Degradation product −N3, relative amount [4, 9]: 0
- Degradation product −N5, C2, relative amount [4, 9]: 0
- Degradation product −N5, relative amount [4, 9]: 0
- remaining at 8 h (in vitro): 20%

Molecule: CC[C@H](C)[C@H](NC(=O)[C@@H]1CCCN1C(=O)[C@H](CCCNC(=N)N)NC(=O)[C@@H]1CCCN1C(=O)[C@@H]1CCCN1C(=O)[C@@H](NC(=O)[C@@H]1CCCN1C(=O)[C@H](CCCNC(=N)N)NC(=O)[C@@H]1CCCN1C(=O)[C@H](CC(C)C)NC(=O)[C@H](Cc1ccc(O)cc1)NC(=O)[C@H](CO)NC(=O)CNC(=O)[C@H](CCCCN)NC(=O)[C@H](CC(=O)O)NC(=O)[C@@H](NC(=O)[C@H](CCCNC(=N)N)NC(C)=O)C(C)C)[C@@H](C)O)C(=O)N[C@@H](Cc1ccc(O)cc1)C(=O)N[C@@H](CC(N)=O)C(=O)N[C@@H](CCCNC(=N)N)C(=O)N[C@@H](CNC(C)=O)C(N)=O [Peptide 22] (Ac-RVDKGSYLPRPTPPRPIYNR[Dap](Ac)-NH2)
- IC50 [1]: 0.6 µM
- IC50 ([1]; 24 h): 2.5 µM
- IC50 (Bacillus megaterium; Bacillus): 80 µM
- IC50 (Bacillus megaterium; Bacillus, 24 h): 40 µM
- IC50 (Micrococcus luteus): 10 µM
- IC50 (Micrococcus luteus; 24 h): 10 µM
- IC50 (Salmonella typhimurium; murium): 2.5 µM
- IC50 (Salmonella typhimurium; murium, 24 h): 2.5 µM
- Degradation product −C1, relative amount [3]: 0
- Degradation product −C2, relative amount [3]: 2 (2=weak (5–10000))
- Degradation product −C3, relative amount [3]: 0
- Degradation product −C6, relative amount [3]: 0
- Degradation product −N3, C2, relative amount [3]: 0
- Degradation product −N3, relative amount [3]: 0
- Degradation product −N5, C2, relative amount [3]: 0
- Degradation product −N5, relative amount [3]: 0
- Degradation product −C1, relative amount [4, 8]: 0
- Degradation product −C2, relative amount [4, 8]: 5
- Degradation product −C3, relative amount [4, 8]: 3 (3=medium (10–15000))
- Degradation product −C6, relative amount [4, 8]: 0
- Degradation product −N3, C2, relative amount [4, 8]: 1 (1=very weak (below 5000))
- Degradation product −N3, relative amount [4, 8]: 2 (2=weak (5–10000))
- Degradation product −N5, C2, relative amount [4, 8]: 2 (2=weak (5–10000))
- Degradation product −N5, relative amount [4, 8]: 3 (3=medium (10–15000))
- Degradation product −C1, relative amount [4, 9]: 0
- Degradation product −C2, relative amount [4, 9]: 5
- Degradation product −C3, relative amount [4, 9]: 0
- Degradation product −C6, relative amount [4, 9]: 0
- Degradation product −N3, C2, relative amount [4, 9]: 0
- Degradation product −N3, relative amount [4, 9]: 2 (2=weak (5–10000))
- Degradation product −N5, C2, relative amount [4, 9]: 0
- Degradation product −N5, relative amount [4, 9]: 1 (1=very weak (below 5000))
- degradation rate compared with other peptides (in words) (25% sera, data not shown): degrades considerably faster than either Peptide 1 or Peptide 21

Molecule: CC[C@H](C)[C@H](NC(=O)[C@@H]1CCCN1C(=O)[C@H](CCCNC(=N)N)NC(=O)[C@@H]1CCCN1C(=O)[C@@H]1CCCN1C(=O)[C@@H](NC(=O)[C@@H]1CCCN1C(=O)[C@H](CCCNC(=N)N)NC(=O)[C@@H]1CCCN1C(=O)[C@H](CC(C)C)NC(=O)[C@H](Cc1ccc(O)cc1)NC(=O)[C@H](CO)NC(=O)CNC(=O)[C@H](CCCCN)NC(=O)[C@H](CC(=O)O)NC(=O)C1(N)CCCCC1)[C@@H](C)O)C(=O)N[C@@H](Cc1ccc(O)cc1)C(=O)N[C@@H](CC(N)=O)C(=O)N[C@@H](CCCNC(=N)N)C(=O)NC(CNC(C)=O)C(N)=O (stereo partly drawn) [Peptide 21, 1-aminocyclo-hexane carboxylic acid (Chex)-Pyrrhocoricin-β-acetyl-2,3-diamino propionic amide [Dap(Ac)]] (H-[Ac6c]DKGSYLPRPTPPRPIYNR[ξDap](Ac)-NH2)
- Absorbence at 405 nm (sheep erythrocytes; 40 μM peptide): 0.110 ± 0.049
- toxicity to sheep erythrocytes (in words) (sheep erythrocytes): completely non-toxic
- Absorbence at 405 nm (sheep erythrocytes; 256 μM peptide): 0.143 ± 0.006
- toxicity of peptide alone (in words) [2]: Neither Peptides 1 nor 21 [SEQ ID NOS: 6 and 22, respectively] alone showed any toxicity
- Degradation product −C1, relative amount [3]: 0
- Degradation product −C2, relative amount [3]: 2 (2=weak (5–10000))
- Degradation product −C3, relative amount [3]: 0
- Degradation product −C6, relative amount [3]: 0
- Degradation product −N3, C2, relative amount [3]: 0
- Degradation product −N3, relative amount [3]: 0
- Degradation product −N5, C2, relative amount [3]: 0
- Degradation product −N5, relative amount [3]: 2 (2=weak (5–10000))
- Degradation product −C1, relative amount [4, 8]: 0
- Degradation product −C2, relative amount [4, 8]: 4 (4=strong (15000-uncleaved molecular ion at 25–30000))
- Degradation product −C3, relative amount [4, 8]: 2 (2=weak (5–10000))
- Degradation product −C6, relative amount [4, 8]: 0
- Degradation product −N3, C2, relative amount [4, 8]: 0
- Degradation product −N3, relative amount [4, 8]: 0
- Degradation product −N5, C2, relative amount [4, 8]: 1 (1=very weak (below 5000))
- Degradation product −N5, relative amount [4, 8]: 2 (2=weak (5–10000))
- Degradation product −C1, relative amount [4, 9]: 0
- Degradation product −C2, relative amount [4, 9]: 4 (4=strong (15000-uncleaved molecular ion at 25–30000))
- Degradation product −C3, relative amount [4, 9]: 0
- Degradation product −C6, relative amount [4, 9]: 0
- Degradation product −N3, C2, relative amount [4, 9]: 0
- Degradation product −N3, relative amount [4, 9]: 0
- Degradation product −N5, C2, relative amount [4, 9]: 1 (1=very weak (below 5000))
- Degradation product −N5, relative amount [4, 9]: 2 (2=weak (5–10000))
- resistance in human serum compared with Peptide 1 (in words) ([4]; human serum): generally more resistant than Peptide 1
- peptide still present (in words) (after 8 hours of digestion, all sera studied): traces
- remaining at 8 h (in vitro): 20%

Molecule: GKPRPYSPRPTSHPRPIRV [drosocin]
- anti-bacterial activity when injected into mice (in words) [5]: no anti-bacterial activity
- time needed to kill bacteria in vitro (bacteria): 12 to 24 h
- degradation in diluted human serum (in words) [6]: completely degraded
- degradation in diluted mouse serum (in words) [7]: completely degraded
